Active and inactive are the calls of the source. The calls are words filed in the database; no cut-off is given here.
Legend:
[1] = Antiproliferative activity against human HT-29 cells measured after 72 hrs by MTT assay; assay type: functional; conditions: HT-29, 72 h
[2] = Cell cycle arrest in human A2780 cells assessed as accumulation at S-phase at 5 times GI50 measured after 24 hrs by propidium iodide staining-based FACS analysis (reference value: 19%); assay type: functional
[3] = Antiproliferative activity against human 22Rv1 cells measured after 72 hrs by MTT assay; assay type: functional, CWR22R; conditions: 22Rv1, 72 h
[4] = Cytotoxicity against human MRC5 cells assessed as reduction in cell viability measured after 72 hrs by MTT assay; assay type: toxicity, cell-based
A2780 [5] = experiment: Induction of apoptosis in human A2780 cells assessed as viable cells at GI50 measured after 24 hrs by Annexin V/propidium iodide staining-based FACS analysis (reference value: 92.6%); assay type: functional
[6] = Antiproliferative activity against human DU145 cells measured after 72 hrs by MTT assay; assay type: functional; conditions: DU-145, 72 h
A2780 [7] = experiment: Induction of apoptosis in human A2780 cells assessed as downregulation of Mcl1 level at 300 to 3000 nM measured after 24 hrs by Western blot analysis; assay type: functional, cell-based
A2780 [8] = experiment: Induction of apoptosis in human A2780 cells assessed as necrotic cells at GI50 measured after 24 hrs by Annexin V/propidium iodide staining-based FACS analysis (reference value: 0.34%); assay type: functional
[9] = Cell cycle arrest in human A2780 cells assessed as accumulation at G2/M-phase at GI50 measured after 24 hrs by propidium iodide staining-based FACS analysis (reference value: 26%); assay type: functional
[10] = Antiproliferative activity against human C4-2B cells measured after 72 hrs by MTT assay; assay type: functional; conditions: LNCaP C4-2B
[11] = Antiproliferative activity against human PC3 cells measured after 72 hrs by MTT assay; assay type: functional; conditions: PC-3, 72 h
[12] = Antiproliferative activity against human LNCAP cells measured after 72 hrs by MTT assay; assay type: functional
[13] = Cell cycle arrest in human A2780 cells assessed as accumulation at G1-phase at 5 times GI50 measured after 24 hrs by propidium iodide staining-based FACS analysis (reference value: 53%); assay type: functional
[14] = Cell cycle arrest in human A2780 cells assessed as accumulation at Sub-G1 phase at 5 times GI50 measured after 24 hrs by propidium iodide staining-based FACS analysis (reference value: 2%); assay type: functional
[15] = Antiproliferative activity against human KM12 cells measured after 72 hrs by MTT assay; assay type: functional; conditions: KM12, 72 h
[16] = Cytotoxicity against human WI38 cells assessed as reduction in cell viability measured after 72 hrs by MTT assay; assay type: toxicity, cell-based, WI-38
[17] = Antiproliferative activity against human MCF7 cells measured after 72 hrs by MTT assay; assay type: functional; conditions: MCF7, 72 h
A2780 [18] = experiment: Induction of apoptosis in human A2780 cells assessed as cleaved PARP level at 300 to 3000 nM measured after 24 hrs by Western blot analysis; assay type: functional, cell-based
A2780 [19] = experiment: Induction of apoptosis in human A2780 cells assessed as early apoptotic cells at 5 times GI50 measured after 24 hrs by Annexin V/propidium iodide staining-based FACS analysis (reference value: 2.81%); assay type: functional
A2780 [20] = experiment: Induction of apoptosis in human A2780 cells assessed as late apoptotic cells at GI50 measured after 24 hrs by Annexin V/propidium iodide staining-based FACS analysis (reference value: 4.23%); assay type: functional
A2780 [21] = experiment: Induction of apoptosis in human A2780 cells assessed as viable cells at 5 times GI50 measured after 24 hrs by Annexin V/propidium iodide staining-based FACS analysis (reference value: 92.6%); assay type: functional
[22] = Cell cycle arrest in human A2780 cells assessed as accumulation at G2/M-phase at 5 times GI50 measured after 24 hrs by propidium iodide staining-based FACS analysis (reference value: 26%); assay type: functional
[23] = Antiproliferative activity against human PANC1 cells measured after 72 hrs by MTT assay; assay type: functional; conditions: PANC-1, 72 h
[24] = Cell cycle arrest in human A2780 cells assessed as accumulation at Sub-G1 phase at GI50 measured after 24 hrs by propidium iodide staining-based FACS analysis (reference value: 2%); assay type: functional
A2780 [25] = experiment: Induction of apoptosis in human A2780 cells assessed as late apoptotic cells at 5 times GI50 measured after 24 hrs by Annexin V/propidium iodide staining-based FACS analysis (reference value: 4.23%); assay type: functional
[26] = Antiproliferative activity against human DaOY cells measured after 72 hrs by MTT assay; assay type: functional
[27] = Cell cycle arrest in human A2780 cells assessed as accumulation at G1-phase at GI50 measured after 24 hrs by propidium iodide staining-based FACS analysis (reference value: 53%); assay type: functional
[28] = Antiproliferative activity against human COLO205 cells measured after 72 hrs by MTT assay; assay type: functional; conditions: COLO 205, 72 h
[29] = Antiproliferative activity against human A2780 cells measured after 72 hrs by MTT assay; assay type: functional; conditions: A2780, 72 h
A2780 [30] = experiment: Induction of apoptosis in human A2780 cells assessed as necrotic cells at 5 times GI50 measured after 24 hrs by Annexin V/propidium iodide staining-based FACS analysis (reference value: 0.34%); assay type: functional
[31] = target: Serine/threonine-protein kinase PLK1 (Homo sapiens) (UniProt P53350); experiment: Inhibition of Plk1 in human A2780 cells assessed as reduction in CDC25C phosphorylation at Ser198 residue at 300 to 3000 nM measured after 24 hrs by Western blot analysis; assay type: cell-based
[32] = Cell cycle arrest in human A2780 cells assessed as accumulation at S-phase at GI50 measured after 24 hrs by propidium iodide staining-based FACS analysis (reference value: 19%); assay type: functional
[33] = Antiproliferative activity against human HCT116 cells measured after 72 hrs by MTT assay; assay type: functional; conditions: HCT-116, 72 h
A2780 [34] = experiment: Induction of apoptosis in human A2780 cells assessed as early apoptotic cells at GI50 measured after 24 hrs by Annexin V/propidium iodide staining-based FACS analysis (reference value: 2.81%); assay type: functional
A2780 [35] = experiment: Induction of apoptosis in human A2780 cells assessed as downregulation of Mcl1 level at 200 to 1000 nM measured after 24 hrs by Western blot analysis; assay type: functional, cell-based
A2780 [36] = experiment: Induction of apoptosis in human A2780 cells assessed as cleaved PARP level at 200 to 1000 nM measured after 24 hrs by Western blot analysis; assay type: functional, cell-based
[37] = target: Serine/threonine-protein kinase PLK1 (Homo sapiens) (UniProt P53350); conditions: A2780, 200 to 1000 nM
Description: Inhibition of Plk1 in human A2780 cells assessed as reduction in CDC25C phosphorylation at Ser198 residue at 200 to 1000 nM measured after 24 hrs by Western blot analysis

Chain of Serine/threonine-protein kinase PLK1 (Homo sapiens) (P53350 whole entry): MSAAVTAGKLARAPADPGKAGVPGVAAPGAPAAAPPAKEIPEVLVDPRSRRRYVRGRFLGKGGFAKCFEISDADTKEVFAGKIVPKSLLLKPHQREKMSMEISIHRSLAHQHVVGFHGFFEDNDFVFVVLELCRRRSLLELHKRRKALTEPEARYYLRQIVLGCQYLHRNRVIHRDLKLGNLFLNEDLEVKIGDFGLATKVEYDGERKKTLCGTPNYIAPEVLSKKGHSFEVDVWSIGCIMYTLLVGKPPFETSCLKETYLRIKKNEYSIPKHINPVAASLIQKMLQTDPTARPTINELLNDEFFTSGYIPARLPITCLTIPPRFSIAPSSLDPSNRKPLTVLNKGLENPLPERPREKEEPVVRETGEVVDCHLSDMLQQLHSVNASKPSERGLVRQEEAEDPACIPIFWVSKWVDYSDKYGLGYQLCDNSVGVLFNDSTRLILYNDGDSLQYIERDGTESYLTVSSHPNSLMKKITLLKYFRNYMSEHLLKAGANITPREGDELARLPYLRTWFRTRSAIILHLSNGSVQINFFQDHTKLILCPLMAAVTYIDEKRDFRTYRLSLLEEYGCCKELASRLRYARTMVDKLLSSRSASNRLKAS

With CCOc1ccc(NS(=O)(=O)/C=C/c2c(OC)cc(OC)cc2OC)cc1 as the compound, how does the GI50 [1] read?
The GI50 was 0.58 µM.

What about the Activity [2] of the same compound?
The Activity was 16%.

What about the GI50 [3] of the same compound?
Its GI50 is 0.53 µM.

And the GI50 at 72 h [4]?
Its GI50 at 72 h is over 10 µM.

And the Activity (A2780 [5])?
Its Activity is 83.21%.

And the GI50 [6]?
Its GI50 is 0.52 µM.

What about the Activity (A2780 [7]) of the same compound?
The Activity was “Active”.

And the Activity (A2780 [8])?
The Activity was 0.78%.

What about the Activity [9] of the same compound?
The Activity was 29%.

And the GI50 [10]?
The GI50 was 0.45 µM.

What about the GI50 [11] of the same compound?
Its GI50 is 0.6 µM.

And the GI50 [12]?
Its GI50 is 0.52 µM.

What about the Activity [13] of the same compound?
Its Activity is 21%.

And the Activity [14]?
Its Activity is 19%.

And the GI50 [15]?
Its GI50 is 0.34 µM.

What about the GI50 at 72 h [16] of the same compound?
The GI50 at 72 h was over 10 µM.

What about the GI50 [17] of the same compound?
The GI50 was 0.53 µM.

What about the Activity (A2780 [18]) of the same compound?
Its Activity is “Active”.

What about the Activity (A2780 [19]) of the same compound?
Its Activity is 20.22%.

And the Activity (A2780 [20])?
Its Activity is 5.92%.

And the Activity (A2780 [21])?
Its Activity is 70.89%.

What about the Activity [22] of the same compound?
The Activity was 44%.

What about the GI50 [23] of the same compound?
Its GI50 is 0.3 µM.

What about the Activity [24] of the same compound?
The Activity was 5%.

And the Activity (A2780 [25])?
Its Activity is 7.57%.

What about the GI50 [26] of the same compound?
Its GI50 is 0.34 µM.

And the Activity [27]?
The Activity was 50%.

What about the GI50 [28] of the same compound?
Its GI50 is 0.59 µM.

And the GI50 [29]?
The GI50 was 0.31 µM.

What about the Activity (A2780 [30]) of the same compound?
Its Activity is 1.17%.

And the inhibition [31]?
The inhibition was “Active”.

And the Activity [32]?
Its Activity is 15%.

And the GI50 [33]?
The GI50 was 0.35 µM.

What about the Activity (A2780 [34]) of the same compound?
The Activity was 10.03%.

Which results are given for COc1cc(OC)c(/C=C/S(=O)(=O)Nc2cnc(Cl)cn2)c(OC)c1?
GI50 [29]: > 10 µM; GI50 [33]: > 10 µM

Which results are given for COc1cc(OC)c(/C=C/S(=O)(=O)Cc2cnc(OC)cn2)c(OC)c1?
GI50 [29]: 0.49 µM; GI50 [33]: 0.95 µM

With COc1ccc(NS(=O)(=O)/C=C/c2c(OC)cc(OC)cc2OC)cc1 as the compound, how does the GI50 [29] read?
Its GI50 is 0.01 µM.

And the GI50 [33]?
The GI50 was 0.01 µM.

Which GI50 [29] does the source give for COc1cc(OC)c(/C=C/S(=O)(=O)Cc2cnc(Cl)cn2)c(OC)c1 here?
The GI50 was 4.76 µM.

And the GI50 [33]?
The GI50 was over 10 µM.

What does the source list for COc1cc(OC)c(/C=C/S(=O)(=O)Nc2ccc(Cl)cc2)c(OC)c1?
GI50 [29]: > 10 µM; GI50 [33]: > 10 µM

Which Activity (A2780 [35]) does the source give for COc1cc(OC)c(/C=C/S(=O)(=O)Cc2ccc(OC)c(NCC(=O)[O-])c2)c(OC)c1.[Na+] [RIGOSERTIB SODIUM] here?
The Activity was “Active”.

And the Activity [2]?
The Activity was 17%.

And the Activity (A2780 [5])?
Its Activity is 91.82%.

What about the Activity (A2780 [8]) of the same compound?
Its Activity is 0.25%.

And the Activity [9]?
Its Activity is 28%.

What about the Activity [13] of the same compound?
Its Activity is 20%.

What about the Activity [14] of the same compound?
Its Activity is 30%.

What about the Activity (A2780 [19]) of the same compound?
Its Activity is 27.41%.

What about the Activity (A2780 [20]) of the same compound?
Its Activity is 2.75%.

And the Activity (A2780 [21])?
The Activity was 69.9%.

And the Activity (A2780 [36])?
The Activity was “Active”.

What about the Activity [22] of the same compound?
Its Activity is 33%.

What about the inhibition [37] of the same compound?
The inhibition was “Active”.

What about the Activity [24] of the same compound?
Its Activity is 5%.

And the Activity (A2780 [25])?
Its Activity is 2.25%.

What about the Activity [27] of the same compound?
The Activity was 48%.

What about the GI50 [29] of the same compound?
The GI50 was 0.04 µM.

What about the Activity (A2780 [30]) of the same compound?
Its Activity is 0.29%.

What about the Activity [32] of the same compound?
Its Activity is 19%.

And the GI50 [33]?
Its GI50 is 0.06 µM.

What about the Activity (A2780 [34]) of the same compound?
The Activity was 5.16%.

For CNc1ncc(OC)c(CS(=O)(=O)/C=C/c2c(OC)cc(OC)cc2OC)n1, which GI50 [29] is on record?
Its GI50 is 7.54 µM.

And the GI50 [33]?
Its GI50 is over 10 µM.

With CCOc1cnc(CS(=O)(=O)/C=C/c2c(OC)cc(OC)cc2OC)cn1 as the compound, how does the GI50 [29] read?
Its GI50 is 0.54 µM.

What about the GI50 [33] of the same compound?
The GI50 was 1.28 µM.

With COc1cc(OC)c(/C=C/S(=O)(=O)Nc2ccc(OC)nc2)c(OC)c1 as the compound, how does the GI50 [29] read?
The GI50 was 0.38 µM.

What about the GI50 [33] of the same compound?
The GI50 was 1 µM.

For COc1cc(OC)c(/C=C/S(=O)(=O)Cc2cnc(OC)c(OC)c2)c(OC)c1, which GI50 [29] is on record?
Its GI50 is 0.93 µM.

And the GI50 [33]?
The GI50 was 2.81 µM.

What does the source list for COc1cc(OC)c(/C=C/S(=O)(=O)Nc2ccc(Cl)nc2)c(OC)c1?
GI50 [29]: 2.6 µM; GI50 [33]: 5.64 µM

For COc1cc(OC)c(/C=C/S(=O)(=O)Cc2nc(N)ncc2OC)c(OC)c1, which GI50 [29] is on record?
The GI50 was over 10 µM.

And the GI50 [33]?
The GI50 was over 10 µM.

With CCOc1cc(OC)cc(OC)c1/C=C/S(=O)(=O)Nc1ccc(OC)nc1 as the compound, how does the GI50 [29] read?
The GI50 was 0.47 µM.

What about the GI50 [33] of the same compound?
Its GI50 is 0.42 µM.

Which GI50 [29] does the source give for COc1cc(OC)c(/C=C/S(=O)(=O)Cc2nc(Cl)ncc2OC)c(OC)c1 here?
Its GI50 is over 10 µM.

And the GI50 [33]?
Its GI50 is over 10 µM.
